From PubChem BioAssay AID2060622 (Molecular Pharmacology Branch, DTP, NCI, 2025)

Tested on: 242566-281-R-J2-PDC complex spheroid viability
Experiment: Anticancer human tumor 242566-281-R-J2-PDC patient-derived pancreatic carcinoma cell line growth inhibition [CLK]
Conditions: for IC50: curve of first compound; for viability, T/C: stronger effect = lower value
Procedure, shortened: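 Patient-derived tumor cells grown as complex spheroids with HUVEC endothelial cells and mesenchymal stem cells, treated with drug combinations. Concentrations descend in half-log steps from near clinical Cmax, or from 10 microM if Cmax unknown.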
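Note: spheroids exposed to compounds for 7 days before readout.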
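Throughout, for viability, T/C: 100% = DMSO vehicle control wells.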

Q: How did the IC50 (second compound 0.0316 µM) turn out when `NC(=O)C(=Cn1cnc(-c2cc(C(F)(F)F)cc(C(F)(F)F)c2)n1)c1cncnc1` + CN1CCN(c2cc(C(=O)Nc3cc4cc(-c5cnn(C)c5)ccc4cn3)ccn2)CC1 was run?
A: The IC50 was 978 nM.

Q: What about the IC50 (second compound 0.1 µM) of the same compound?
A: Its IC50 is 465 nM.

Q: What about the IC50 (second compound 0.316 µM) of the same compound?
A: The IC50 was < 9.49 nM.

Q: What about the IC50 (second compound 1 µM) of the same compound?
A: The IC50 was < 9.49 nM.

Q: And the IC50 (second compound 3.16 µM)?
A: The IC50 was < 9.49 nM.

Q: What about the IC50 (second compound 10 µM) of the same compound?
A: The IC50 was < 9.49 nM.

Q: What about the viability, T/C (second compound 0.0316 µM, first compound 0.00949 µM) of the same compound?
A: The viability, T/C was 99.3%.

Q: And the viability, T/C (second compound 0.0316 µM, first compound 0.03 µM)?
A: Its viability, T/C is 106%.

Q: What about the viability, T/C (second compound 0.0316 µM, first compound 0.0949 µM) of the same compound?
A: The viability, T/C was 97%.

Q: And the viability, T/C (second compound 0.0316 µM, first compound 0.3 µM)?
A: Its viability, T/C is 84.1%.

Q: And the viability, T/C (second compound 0.0316 µM, first compound 0.949 µM)?
A: The viability, T/C was 50.9%.

Q: What about the viability, T/C (second compound 0.0316 µM, first compound 3 µM) of the same compound?
A: The viability, T/C was 19.7%.

Q: What about the viability, T/C (second compound 0.1 µM, first compound 0.00949 µM) of the same compound?
A: The viability, T/C was 92.5%.

Q: What about the viability, T/C (second compound 0.1 µM, first compound 0.03 µM) of the same compound?
A: The viability, T/C was 83.6%.

Q: What about the viability, T/C (second compound 0.1 µM, first compound 0.0949 µM) of the same compound?
A: The viability, T/C was 84.4%.

Q: What about the viability, T/C (second compound 0.1 µM, first compound 0.3 µM) of the same compound?
A: The viability, T/C was 60%.

Q: And the viability, T/C (second compound 0.1 µM, first compound 0.949 µM)?
A: Its viability, T/C is 31.7%.

Q: What about the viability, T/C (second compound 0.1 µM, first compound 3 µM) of the same compound?
A: Its viability, T/C is 7.32%.

Q: What about the viability, T/C (second compound 0.316 µM, first compound 0.00949 µM) of the same compound?
A: The viability, T/C was 29.2%.

Q: What about the viability, T/C (second compound 0.316 µM, first compound 0.03 µM) of the same compound?
A: The viability, T/C was 16.8%.

Q: And the viability, T/C (second compound 0.316 µM, first compound 0.0949 µM)?
A: The viability, T/C was 6.44%.

Q: And the viability, T/C (second compound 0.316 µM, first compound 0.3 µM)?
A: The viability, T/C was 3.56%.

Q: And the viability, T/C (second compound 0.316 µM, first compound 0.949 µM)?
A: Its viability, T/C is 3.41%.

Q: What about the viability, T/C (second compound 0.316 µM, first compound 3 µM) of the same compound?
A: The viability, T/C was 4.67%.

Q: And the viability, T/C (second compound 1 µM, first compound 0.00949 µM)?
A: The viability, T/C was 3.11%.

Q: What about the viability, T/C (second compound 1 µM, first compound 0.03 µM) of the same compound?
A: Its viability, T/C is 4.63%.

Q: What about the viability, T/C (second compound 1 µM, first compound 0.0949 µM) of the same compound?
A: Its viability, T/C is 6.18%.

Q: And the viability, T/C (second compound 1 µM, first compound 0.3 µM)?
A: The viability, T/C was 6.13%.

Q: What about the viability, T/C (second compound 1 µM, first compound 0.949 µM) of the same compound?
A: Its viability, T/C is 6.09%.

Q: And the viability, T/C (second compound 1 µM, first compound 3 µM)?
A: Its viability, T/C is 5.22%.

Q: And the viability, T/C (second compound 3.16 µM, first compound 0.00949 µM)?
A: The viability, T/C was 5.89%.

Q: And the viability, T/C (second compound 3.16 µM, first compound 0.03 µM)?
A: Its viability, T/C is 6.16%.

Q: What about the viability, T/C (second compound 3.16 µM, first compound 0.0949 µM) of the same compound?
A: The viability, T/C was 8.1%.

Q: What about the viability, T/C (second compound 3.16 µM, first compound 0.3 µM) of the same compound?
A: The viability, T/C was 7.76%.

Q: What about the viability, T/C (second compound 3.16 µM, first compound 0.949 µM) of the same compound?
A: Its viability, T/C is 7.74%.

Q: And the viability, T/C (second compound 3.16 µM, first compound 3 µM)?
A: The viability, T/C was 6.2%.

Q: What about the viability, T/C (second compound 10 µM, first compound 0.00949 µM) of the same compound?
A: The viability, T/C was 1.11%.

Q: And the viability, T/C (second compound 10 µM, first compound 0.03 µM)?
A: The viability, T/C was 1.56%.

Q: What about the viability, T/C (second compound 10 µM, first compound 0.0949 µM) of the same compound?
A: The viability, T/C was 0.89%.

Q: What about the viability, T/C (second compound 10 µM, first compound 0.3 µM) of the same compound?
A: The viability, T/C was 1.02%.

Q: And the viability, T/C (second compound 10 µM, first compound 0.949 µM)?
A: The viability, T/C was 0.68%.

Q: And the viability, T/C (second compound 10 µM, first compound 3 µM)?
A: The viability, T/C was 0.27%.

Q: For `Nc1ccccc1NC(=O)c1ccc(CNC(=O)OCc2cccnc2)cc1` + CN1CCN(c2cc(C(=O)Nc3cc4cc(-c5cnn(C)c5)ccc4cn3)ccn2)CC1, which IC50 (second compound 0.0316 µM) is on record?
A: The IC50 was 2690 nM.

Q: And the IC50 (second compound 0.1 µM)?
A: The IC50 was 1540 nM.

Q: What about the IC50 (second compound 0.316 µM) of the same compound?
A: The IC50 was < 31.6 nM.

Q: What about the IC50 (second compound 1 µM) of the same compound?
A: Its IC50 is < 31.6 nM.

Q: And the IC50 (second compound 3.16 µM)?
A: The IC50 was < 31.6 nM.

Q: What about the IC50 (second compound 10 µM) of the same compound?
A: The IC50 was < 31.6 nM.

Q: And the viability, T/C (second compound 0.0316 µM, first compound 0.0316 µM)?
A: Its viability, T/C is 95.9%.

Q: And the viability, T/C (second compound 0.0316 µM, first compound 0.1 µM)?
A: The viability, T/C was 96.1%.

Q: What about the viability, T/C (second compound 0.0316 µM, first compound 0.316 µM) of the same compound?
A: Its viability, T/C is 84.2%.

Q: And the viability, T/C (second compound 0.0316 µM, first compound 1 µM)?
A: Its viability, T/C is 83.5%.

Q: And the viability, T/C (second compound 0.0316 µM, first compound 3.16 µM)?
A: The viability, T/C was 44.2%.

Q: And the viability, T/C (second compound 0.0316 µM, first compound 10 µM)?
A: The viability, T/C was 10.9%.

Q: And the viability, T/C (second compound 0.1 µM, first compound 0.0316 µM)?
A: The viability, T/C was 92.5%.

Q: And the viability, T/C (second compound 0.1 µM, first compound 0.1 µM)?
A: The viability, T/C was 82.8%.

Q: What about the viability, T/C (second compound 0.1 µM, first compound 0.316 µM) of the same compound?
A: The viability, T/C was 70.5%.

Q: And the viability, T/C (second compound 0.1 µM, first compound 1 µM)?
A: Its viability, T/C is 65.8%.

Q: And the viability, T/C (second compound 0.1 µM, first compound 3.16 µM)?
A: The viability, T/C was 31.6%.

Q: And the viability, T/C (second compound 0.1 µM, first compound 10 µM)?
A: The viability, T/C was 5.31%.

Q: And the viability, T/C (second compound 0.316 µM, first compound 0.0316 µM)?
A: Its viability, T/C is 28.3%.

Q: What about the viability, T/C (second compound 0.316 µM, first compound 0.1 µM) of the same compound?
A: Its viability, T/C is 29.4%.

Q: And the viability, T/C (second compound 0.316 µM, first compound 0.316 µM)?
A: Its viability, T/C is 28.4%.

Q: What about the viability, T/C (second compound 0.316 µM, first compound 1 µM) of the same compound?
A: Its viability, T/C is 20.9%.

Q: And the viability, T/C (second compound 0.316 µM, first compound 3.16 µM)?
A: The viability, T/C was 6.85%.

Q: What about the viability, T/C (second compound 0.316 µM, first compound 10 µM) of the same compound?
A: The viability, T/C was 0.46%.

Q: And the viability, T/C (second compound 1 µM, first compound 0.0316 µM)?
A: Its viability, T/C is 4.47%.

Q: What about the viability, T/C (second compound 1 µM, first compound 0.1 µM) of the same compound?
A: Its viability, T/C is 4.78%.

Q: What about the viability, T/C (second compound 1 µM, first compound 0.316 µM) of the same compound?
A: The viability, T/C was 4.55%.

Q: What about the viability, T/C (second compound 1 µM, first compound 1 µM) of the same compound?
A: The viability, T/C was 3.08%.

Q: What about the viability, T/C (second compound 1 µM, first compound 3.16 µM) of the same compound?
A: Its viability, T/C is 2.04%.

Q: What about the viability, T/C (second compound 1 µM, first compound 10 µM) of the same compound?
A: The viability, T/C was 1.1%.

Q: And the viability, T/C (second compound 3.16 µM, first compound 0.0316 µM)?
A: Its viability, T/C is 9.27%.

Q: And the viability, T/C (second compound 3.16 µM, first compound 0.1 µM)?
A: The viability, T/C was 7.2%.

Q: What about the viability, T/C (second compound 3.16 µM, first compound 0.316 µM) of the same compound?
A: The viability, T/C was 7.84%.

Q: What about the viability, T/C (second compound 3.16 µM, first compound 1 µM) of the same compound?
A: The viability, T/C was 6.26%.

Q: And the viability, T/C (second compound 3.16 µM, first compound 3.16 µM)?
A: The viability, T/C was 5.4%.

Q: What about the viability, T/C (second compound 3.16 µM, first compound 10 µM) of the same compound?
A: The viability, T/C was 3.16%.

Q: What about the viability, T/C (second compound 10 µM, first compound 0.0316 µM) of the same compound?
A: The viability, T/C was 2.19%.

Q: And the viability, T/C (second compound 10 µM, first compound 0.1 µM)?
A: Its viability, T/C is 1.81%.

Q: What about the viability, T/C (second compound 10 µM, first compound 0.316 µM) of the same compound?
A: Its viability, T/C is 1.73%.

Q: And the viability, T/C (second compound 10 µM, first compound 1 µM)?
A: The viability, T/C was 2.14%.

Q: What about the viability, T/C (second compound 10 µM, first compound 3.16 µM) of the same compound?
A: Its viability, T/C is 1.57%.

Q: What about the viability, T/C (second compound 10 µM, first compound 10 µM) of the same compound?
A: The viability, T/C was 0.86%.
